Tested on: doxorubicin resistant sub line RPMI8226Dox40
Assay: Single cell seeding and cultivation in microplate with doxorubicin-spiked growth medium (drug resistance screening), resistant cells
Type: cell-based, human
Details: 6 days of incubation, resistant vs sensitive cells
Procedure: The clean plates and semi-permeable top membranes were autoclaved for 20 min at 121° C. to obtain a sterile cell culture environment. An excess of recommended growth medium was added to the plate, and manually distributed evenly to all wells by an autoclaved hand scraper (VWR) or sterile cell scrapers (Falcon, for one-time use only). Then, automatic single cell seeding into predefined wells of the microplate was carried out using the FACS. A motorized x/y-stage combined with the software CloneCyt Plus (BD Biosciences) was used to control the exact position of every cell sorted in the plate. Selection of the cells to be seeded was performed based on their individual FSC/SSC (forward scatter/side scatter) properties (i.e. size and granularity). The cells were analyzed at a rate of approximately 100 cells/s. A representative set of cells was sought, meaning that all viable cells in the sample were selected for seeding into the plate. The cells were sorted directly from recommended growth medium in concentrations ranging from 10^5-10^6 cells/ml. FACS Clean solution (BD Biosciences) was let through the fluidics of the FACS prior to experiments to obtain sterility. The x/y-stage and the surrounding of the fluidics outlet was cleaned with 70% EtOH. During analysis, sterile 0.25×PBS was used as sheath buffer. […]

## COc1cccc2c1C(=O)c1c(O)c3c(c(O)c1C2=O)C[C@@](O)(C(=O)CO)C[C@@H]3O[C@H]1C[C@H](N)[C@H](O)[C@H](C)O1 [Doxorubicin, doxorubicin]
  Proliferation at higher drug concentrations: only resistant cells can proliferate at higher drug concentrations

Reference: patent US20090061513A1, “Cell sorting and cell cultivation methods” (PicoVitro AB, priority 2007, published 2009)
